# Measured values as given in patent US20220402925A1, “COMPOUNDS AND METHODS FOR THE TREATMENT OF CYSTIC FIBROSIS” (Flatley Discovery Lab, LLC, priority 2019, published 2022).
# Biological target: T1, F508del CFTR (Homo sapiens, UniProt P13569, DEL508-508)
# T1 construct: Primary CF airway epithelial cells were obtained from the UNC Cystic Fibrosis Tissue Procurement and Cell Culture Core; host or cells: primary CF airway epithelial cells
# Test: Equivalent current assay in primary CF airway epithelial cells (Corrector Activity, NAUC normalized to 3 μM VX809)
# Assay type: cell-based
# Settings: NAUC as % of positive control (VX-809)
# Method in brief: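 Differentiated primary CF airway cells treated basolaterally 24 h at 37° C with compound (0.1% DMSO). Equivalent current recorded after 5 μM benzamil, stimulation with 10 μM forskolin plus 1 μM VX-770 or 3 μM FDL176, and block by 20 μM CFTR-172; vehicle-subtracted AUC normalized to 3 μM VX809; EC50 from sigmoid fit, Hill slope 1.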
# T1 sequence (P13569 with tags, fused parts or gaps DEL508-508): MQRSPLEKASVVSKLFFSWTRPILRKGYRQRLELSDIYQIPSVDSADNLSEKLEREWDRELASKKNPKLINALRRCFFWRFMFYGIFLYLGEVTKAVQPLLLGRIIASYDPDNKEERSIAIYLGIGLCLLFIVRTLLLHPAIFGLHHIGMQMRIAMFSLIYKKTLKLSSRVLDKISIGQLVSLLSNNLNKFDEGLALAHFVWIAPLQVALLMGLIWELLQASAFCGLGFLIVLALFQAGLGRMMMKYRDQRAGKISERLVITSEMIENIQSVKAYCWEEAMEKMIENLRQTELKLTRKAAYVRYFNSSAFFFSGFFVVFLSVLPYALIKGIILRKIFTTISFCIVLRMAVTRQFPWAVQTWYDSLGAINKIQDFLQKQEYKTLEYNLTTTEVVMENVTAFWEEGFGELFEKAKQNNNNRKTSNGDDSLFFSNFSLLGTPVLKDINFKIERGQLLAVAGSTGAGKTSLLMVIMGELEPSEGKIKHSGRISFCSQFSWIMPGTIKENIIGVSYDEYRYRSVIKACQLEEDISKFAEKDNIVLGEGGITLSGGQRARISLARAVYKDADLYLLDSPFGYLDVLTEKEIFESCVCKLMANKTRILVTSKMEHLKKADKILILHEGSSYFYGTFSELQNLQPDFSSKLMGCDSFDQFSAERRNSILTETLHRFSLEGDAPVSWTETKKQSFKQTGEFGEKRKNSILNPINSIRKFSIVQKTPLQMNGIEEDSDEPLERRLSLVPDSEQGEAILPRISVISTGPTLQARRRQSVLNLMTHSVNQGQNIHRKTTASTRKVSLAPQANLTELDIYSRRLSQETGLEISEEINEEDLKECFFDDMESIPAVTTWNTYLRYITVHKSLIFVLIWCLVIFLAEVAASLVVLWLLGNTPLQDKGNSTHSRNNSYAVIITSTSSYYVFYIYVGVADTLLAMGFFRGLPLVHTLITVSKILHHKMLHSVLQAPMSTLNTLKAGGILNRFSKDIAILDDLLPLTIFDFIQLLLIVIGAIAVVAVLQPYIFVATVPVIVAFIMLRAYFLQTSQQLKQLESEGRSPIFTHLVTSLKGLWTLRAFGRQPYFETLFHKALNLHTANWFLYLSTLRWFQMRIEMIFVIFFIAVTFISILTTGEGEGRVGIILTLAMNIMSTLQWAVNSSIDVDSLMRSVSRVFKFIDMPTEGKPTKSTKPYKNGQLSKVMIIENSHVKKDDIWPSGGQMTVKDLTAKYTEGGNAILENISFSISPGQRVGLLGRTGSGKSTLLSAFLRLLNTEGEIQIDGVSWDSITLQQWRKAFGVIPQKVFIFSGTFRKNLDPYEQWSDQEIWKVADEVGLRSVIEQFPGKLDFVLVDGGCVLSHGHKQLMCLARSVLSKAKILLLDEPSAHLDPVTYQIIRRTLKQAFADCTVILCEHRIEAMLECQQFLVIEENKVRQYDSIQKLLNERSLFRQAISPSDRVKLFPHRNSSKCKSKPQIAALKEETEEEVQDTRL
row,Corr Activity (NAUC),SMILES
1,+ (NAUC<40% of positive control),CCN(C(=O)Cn1nc(-c2cc(SC)cc(C(F)(F)F)c2)c2[nH]cnc2c1=O)c1ccc2c(c1)OC(F)(F)O2 [Example 271]
2,+++ (NAUC>70% of positive control),CCN(C(=O)Cn1nc(-c2cc(C#N)cc(C(F)F)c2)c2occc2c1=O)c1ccc2c(c1)OC(F)(F)O2 [Example 99]
3,+ (NAUC<40% of positive control),"CN(C(=O)Cn1nc(-c2cc(C#N)cc(C(=O)O)c2)c2occc2c1=O)c1ccc2c(c1)OC(F)(F)O2 [Example 213, 3-cyano-5-(5-(2-((2,2-difluorobenzo[d][1,3]dioxol-5-yl)(methyl)amino)-2-oxoethyl)-4-oxo-4,5-dihydrofuro[2,3-d]pyridazin-7-yl)benzoic acid]"
4,+ (NAUC<40% of positive control),CCN(C(=O)Cn1nc(-c2ccc(O)c(Cl)c2)c2[nH]cnc2c1=O)c1ccc2c(c1)OC(F)(F)O2 [Example 327]
5,+++ (NAUC>70% of positive control),CCN(C(=O)Cn1nc(-c2cccc(C#N)c2)c2occc2c1=O)c1ccc2c(c1F)OC(F)(F)O2 [Example 60]
6,+ (NAUC<40% of positive control),CCN(C(=O)Cn1nc(-c2ccc(CC#N)c(OC)c2)c2[nH]cnc2c1=O)c1ccc2c(c1)OC(F)(F)O2 [Example 357]
7,++ (NAUC 70-40% of positive control),Cc1nc2ccc(N(C)C(=O)Cn3nc(-c4cccc(C#N)c4)c4oc(C5CCC5)cc4c3=O)cc2o1 [Example 232]
8,+++ (NAUC>70% of positive control),CCN(C(=O)Cn1nc(-c2cc(C#N)cc(OC)c2)c2[nH]cnc2c1=O)c1ccc2c(c1)OC(F)(F)O2 [Example 286]
9,++ (NAUC 70-40% of positive control),CN(C(=O)Cn1nc(-c2cccc(C#N)c2)c2oc(CN3CCCC3)cc2c1=O)c1ccc2c(c1)OC(F)(F)O2 [Example 200]
10,++ (NAUC 70-40% of positive control),CCN(C(=O)Cn1nc(-c2cc(C)cc(C(F)(F)F)c2)c2[nH]cnc2c1=O)c1ccc2c(c1)OC(F)(F)O2 [Example 279]
11,++ (NAUC 70-40% of positive control),CCN(C(=O)Cn1nc(-c2cc(C#N)cc(C(F)F)c2)c2oc(C(F)F)cc2c1=O)c1ccc2c(c1)OC(F)(F)O2 [Example 198]
12,++ (NAUC 70-40% of positive control),COc1cc(Cl)cc(-c2nn(CC(=O)N(c3ccc4c(c3)OC(F)(F)O4)C3CC3)c(=O)c3nc[nH]c23)c1 [Example 379]
13,+++ (NAUC>70% of positive control),CCN(C(=O)Cn1nc(-c2cc(C#N)cc(C(F)(F)F)c2)c2oc(C(=O)NC(C)(C)C)cc2c1=O)c1ccc2c(c1)OC(F)(F)O2 [Example 144]
14,+ (NAUC<40% of positive control),CCN(C(=O)Cn1nc(-c2cc(C#N)cc(OC)c2)c2oc(C3CCC3)cc2c1=O)c1ccc2c(c1)OC(F)(F)O2 [Example 239]
15,+ (NAUC<40% of positive control),O=C(Cn1nc(-c2cc(Cl)cc(CO)c2)c2[nH]cnc2c1=O)N(c1ccc2c(c1)OC(F)(F)O2)C1CC1 [Example 405]
16,++ (NAUC 70-40% of positive control),CCN(C(=O)Cn1nc(-c2cccc(C(C)(C)C)c2)c2occc2c1=O)c1ccc2c(c1)OC(F)(F)O2 [Example 88]
17,+++ (NAUC>70% of positive control),CCN(C(=O)Cn1nc(-c2cccc(Cl)c2)c2oc(C(F)F)cc2c1=O)c1ccc2c(c1)OC(F)(F)O2 [Example 186]
18,++ (NAUC 70-40% of positive control),CC(C)(C)NC(=O)c1cc2c(=O)n(CC(=O)N3CCCc4c3ccc3c4OC(F)(F)O3)nc(-c3cccc(Cl)c3)c2o1 [Example 128]
19,+++ (NAUC>70% of positive control),CCN(C(=O)Cn1nc(-c2cc(F)cc(OC)c2)c2oc(C3CC3)cc2c1=O)c1ccc2c(c1)OC(F)(F)O2 [Example 228]
20,+++ (NAUC>70% of positive control),CCN(C(=O)Cn1nc(-c2cccc(Cl)c2)c2sccc2c1=O)c1ccc2c(c1)OC(F)(F)O2 [Example 5]
21,+ (NAUC<40% of positive control),O=C(Cn1nc(-c2cc(C(F)(F)F)cc(C(F)(F)F)c2)c2[nH]cnc2c1=O)N(c1ccc2c(c1)OC(F)(F)O2)C1CC1 [Example 382]
22,+++ (NAUC>70% of positive control),CCN(C(=O)Cn1nc(-c2cc(C#N)cc(C(C)(C)C)c2)c2[nH]cnc2c1=O)c1ccc2c(c1)OC(F)(F)O2 [Example 245]
23,++ (NAUC 70-40% of positive control),CN(C(=O)Cn1nc(-c2cccc(C#N)c2)c2oc(Cl)cc2c1=O)c1ccc2c(c1)OC(F)(F)O2 [Example 64]
24,+++ (NAUC>70% of positive control),Cc1cc2c(cc1N(C)C(=O)Cn1nc(-c3cc(F)cc(C#N)c3)c3occc3c1=O)OC(F)(F)O2 [Example 166]
25,+++ (NAUC>70% of positive control),CCN(C(=O)Cn1nc(-c2cc(C)cc(C#N)c2)c2oc(C(=O)NC(C)(C)C)cc2c1=O)c1ccc2c(c1)OC(F)(F)O2 [Example 131]

row,Corr Activity (NAUC),SMILES
1,++ (NAUC 70-40% of positive control),O=C(Cn1nc(-c2cc(F)cc(Cl)c2)c2[nH]cnc2c1=O)N(c1ccc2c(c1)OC(F)(F)O2)C1CC1 [Example 378]
2,+ (NAUC<40% of positive control),O=C(Cn1nc(-c2ccc(OCC(F)(F)F)c(F)c2)c2[nH]cnc2c1=O)N(c1ccc2c(c1)OC(F)(F)O2)C1CC1 [Example 457]
3,+++ (NAUC>70% of positive control),Cc1cc2c(cc1N(C)C(=O)Cn1nc(-c3cccc(C#N)c3)c3occc3c1=O)OC(F)(F)O2 [Example 44]
4,+++ (NAUC>70% of positive control),CCN(C(=O)Cn1nc(-c2cc(C)cc(C#N)c2)c2[nH]cnc2c1=O)c1cc2c(cc1C)OC(F)(F)O2 [Example 248]
5,+++ (NAUC>70% of positive control),N#Cc1cc(-c2nn(CC(=O)N(c3ccc4c(c3)OC(F)(F)O4)C3CC3)c(=O)c3nc[nH]c23)ccc1N1CCC(F)C1 (centres unmarked) [Example 488]
6,+++ (NAUC>70% of positive control),"CC(O)c1cc2c(=O)n(CC(=O)N(C)c3ccc4c(c3)OC(F)(F)O4)nc(-c3cccc(Cl)c3)c2o1 (centres unmarked) [Example 183, 2-(7-(3-chlorophenyl)-2-(1-hydroxyethyl)-4-oxofuro[2,3-d]pyridazin-5(4H)-yl)-N-(2,2-difluorobenzo[d][1,3]dioxol-5-yl)-N-methylacetamide]"
7,++ (NAUC 70-40% of positive control),CCN(C(=O)Cn1nc(-c2cccc(F)c2)c2cn[nH]c2c1=O)c1ccc2c(c1)OC(F)(F)O2 [Example 495]
8,+++ (NAUC>70% of positive control),CCN(C(=O)Cn1nc(-c2cccc(F)c2)c2oc(C(=O)NC(C)(C)C)cc2c1=O)c1ccc2c(c1)OC(F)(F)O2 [Example 119]
9,+++ (NAUC>70% of positive control),CCN(C(=O)Cn1nc(-c2cc(Cl)cc(C#N)c2)c2oc(C(F)F)cc2c1=O)c1cc2c(cc1C)OC(F)(F)O2 [Example 194]
10,++ (NAUC 70-40% of positive control),CN(C(=O)Cn1nc(-c2cccc(C#N)c2)c2oc(C3CCC3)cc2c1=O)c1ccc2c(c1)OC(F)(F)O2 [Example 233]
11,+ (NAUC<40% of positive control),CCN(C(=O)Cn1nc(-c2ccc3c(c2)C(C)(C)c2ccccc2-3)c2[nH]cnc2c1=O)c1ccc2c(c1)OC(F)(F)O2 [Example 293]
12,+++ (NAUC>70% of positive control),CCN(C(=O)Cn1nc(-c2cc(F)cc(Cl)c2)c2oc(C)cc2c1=O)c1ccc2c(c1)OC(F)(F)O2 [Example 75]
13,+++ (NAUC>70% of positive control),Cc1c(N(C)C(=O)Cn2nc(-c3cc(F)cc(C#N)c3)c3oc(C(=O)NC(C)(C)C)cc3c2=O)ccc2c1OC(F)(F)O2 [Example 139]
14,++ (NAUC 70-40% of positive control),CN(C(=O)Cn1nc(-c2cccc(C#N)c2)c2cn[nH]c2c1=O)c1ccc2c(c1)OC(F)(F)O2 [Example 494]
15,+ (NAUC<40% of positive control),CCN(C(=O)Cn1nc(-c2ccc(C(F)(F)F)c(C(F)(F)F)c2)c2[nH]cnc2c1=O)c1ccc2c(c1)OC(F)(F)O2 [Example 345]
16,+ (NAUC<40% of positive control),CCN(C(=O)Cn1nc(-c2cc(OC)cc(C(F)(F)F)c2)c2[nH]cnc2c1=O)c1ccc2c(c1)OC(F)(F)O2 [Example 265]
17,+ (NAUC<40% of positive control),CCN(C(=O)Cn1nc(-c2cc(OC)cc(OC(F)(F)F)c2)c2[nH]cnc2c1=O)c1ccc2c(c1)OC(F)(F)O2 [Example 274]
18,+++ (NAUC>70% of positive control),CCN(C(=O)Cn1nc(-c2cc(Cl)cc(C#N)c2)c2occc2c1=O)c1cc2c(cc1C)OC(F)(F)O2 [Example 169]
19,+++ (NAUC>70% of positive control),O=C(Cn1nc(-c2cc(Cl)cc(OCc3ccccc3)c2)c2[nH]cnc2c1=O)N(c1ccc2c(c1)OC(F)(F)O2)C1CC1 [Example 396]
20,+++ (NAUC>70% of positive control),CCN(C(=O)Cn1nc(-c2cccc(C#N)c2)c2c(c1=O)CCC2)c1ccc2nc(C)oc2c1 [Example 50]
21,+++ (NAUC>70% of positive control),N#Cc1cccc(-c2nn(CC(=O)N3CCCc4c3ccc3c4OC(F)(F)O3)c(=O)c3nc[nH]c23)c1 [Example 375]
22,+++ (NAUC>70% of positive control),CCN(C(=O)Cn1nc(-c2cc(Cl)cc(OC)c2)c2occc2c1=O)c1ccc2c(c1)OC(F)(F)O2 [Example 112]
23,++ (NAUC 70-40% of positive control),CCN(C(=O)Cn1nc(-c2cccc(OC(C)(C)C)c2)c2oc(C(=O)NC(C)(C)C)cc2c1=O)c1ccc2c(c1)OC(F)(F)O2 [Example 122]
24,+++ (NAUC>70% of positive control),N#Cc1cccc(-c2nn(CC(=O)N(c3ccc4c(c3)OC(F)(F)O4)C3CCOC3)c(=O)c3ccoc23)c1 (centres unmarked) [Example 39]
25,+++ (NAUC>70% of positive control),CCN(C(=O)Cn1nc(-c2cccc(C#N)c2)c2oc3ccccc3c2c1=O)c1ccc2c(c1)OC(F)(F)O2 [Example 159]
